Source: ChEMBL document CHEMBL1149568, “Design, synthesis, and molecular modeling studies of 5'-deoxy-5'-ureidoadenosine: 5'-ureido group as multiple hydrogen bonding donor in the active site of S-adenosylhomocysteine hydrolase” (Bioorg Med Chem Lett, 2007)

Molecular target: Adenosylhomocysteinase (Homo sapiens, UniProt P23526)
Assay: Inhibition of human recombinant placental SAH

Sequence of Adenosylhomocysteinase (P23526 whole entry): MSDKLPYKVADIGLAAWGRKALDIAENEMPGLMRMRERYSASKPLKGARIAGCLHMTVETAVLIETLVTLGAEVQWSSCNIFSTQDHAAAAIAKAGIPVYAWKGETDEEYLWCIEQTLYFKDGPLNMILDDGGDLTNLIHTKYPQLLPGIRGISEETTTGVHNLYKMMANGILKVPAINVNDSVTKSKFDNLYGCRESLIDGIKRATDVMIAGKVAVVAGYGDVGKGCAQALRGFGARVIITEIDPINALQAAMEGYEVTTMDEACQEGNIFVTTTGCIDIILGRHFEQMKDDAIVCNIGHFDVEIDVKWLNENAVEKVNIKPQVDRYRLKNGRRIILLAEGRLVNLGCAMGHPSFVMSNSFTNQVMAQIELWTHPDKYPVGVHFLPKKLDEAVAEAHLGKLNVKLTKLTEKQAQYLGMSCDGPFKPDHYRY

Row | IC50 [µM] | SMILES
1 | 7.53 | NC(=O)NC[C@H]1O[C@@H](n2cnc3c(N)ncnc32)[C@H](O)[C@@H]1O
2 | 28.9 | [N-]=[N+]=NC[C@H]1O[C@@H](n2cnc3c(N)ncnc32)[C@H](O)[C@@H]1O
3 | 75 | NC[C@H]1O[C@@H](n2cnc3c(N)ncnc32)[C@H](O)[C@@H]1O
